# Assay results taken from patent US11197933B2, “Polysubunit opioid prodrugs resistant to overdose and abuse” (Elysium Therapeutics, Inc., priority 2017, dated 2021).
# Assays:
# trypsin [1] = biological target: T1, trypsin (Bos taurus, UniProt P00760); experiment: Inhibition of trypsin-catalyzed hydrolysis of BANA (percent BANA remaining vs. time); format: biochemical; settings: pH 7.4, 37° C.; for Ability to inhibit trypsin (result in words): increasing concentrations, BANA substrate
# T1 construct: gene PRSS1
# T1 sequence (P00760 24-246): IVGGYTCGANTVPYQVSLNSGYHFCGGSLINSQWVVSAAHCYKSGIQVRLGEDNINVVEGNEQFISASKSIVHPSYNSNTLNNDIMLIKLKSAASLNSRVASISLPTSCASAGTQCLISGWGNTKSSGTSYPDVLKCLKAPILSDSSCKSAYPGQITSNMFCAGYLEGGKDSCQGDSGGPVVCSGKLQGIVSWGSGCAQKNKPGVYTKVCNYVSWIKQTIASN
# Procedure: This example describes in vitro experiments with a compound of the disclosure to provide a mechanism of overdose protection.
# The effect of increasing concentrations of compounds II-D-11, II-D-23, II-D-71c and II-D-71b on the rate and extent of the trypsin-catalyzed hydrolysis of a commercially available trypsin substrate Nα-Benzoyl-L-arginine 4-nitroanilide hydrochloride (BANA) was evaluated in the presence of trypsin (2,000 BAEE activity) in a pH 7.4 phosphate buffer at 37° C. in vitro. Both buffer solution alone (i.e. no trypsin) and trypsin containing buffer solution (i.e. no test compounds) controls were run contemporaneously.
# [2] = Hydrocodone and naltrexone release from II-D-71c-NTX in 0.5M aqueous NaOH at 60° C. (tampering); format: physicochemical; settings: for Percent HC Released / Percent NTX Released: 60° C. incubation in 0.5M aqueous NaOH
# Procedure: H-D-71c-NTX was incubated in a strongly basic solution of 0.5M aqueous sodium hydroxide at 60° C. for 300 minutes. The solution was analyzed for the presence of both hydrocodone and naltrexone at specified time points using LC/MS analysis. […] The data from this study is presented graphically in FIG. 2.
# [3] = Rate of release of opioid agonist (key differentiating attributes, Table 5); settings: for Rate of Release of Opioid Against: in words (Fast/Slow); for half-life: read-out: Rate of Release of Opioid Against: T1/2
# Excerpt: (§1) As mentioned previously, a wide range of targeted oral pharmacokinetic profiles can be achieved by administering pharmaceutical compositions containing specific combinations of different polysubunit molecules to subjects. For example, the different polysubunit molecules contained in the composition may differ with regard to (i) the specific opioid agonists delivered, (ii) the rates at which the opioid agonist is delivered in vivo (i.e. to modify the oral pharmacokinetic profile of the delivered opioid), and (iii) the combined inhibitory potency of the GI enzyme inhibiting subunits [i.e. to modify the overdose protection profile and/or the prescribed dose strengths of the delivered opioid agonist(s)]. Table 5 below provides non-limiting examples of compounds of the invention with their key differentiating attributes. Table 6 discusses scenarios and rationales for using the compounds presented in Table 5 in combination with each other, in useful pharmaceutical formulations of the invention.
# trypsin [4] = biological target: T1, trypsin; experiment: Trypsin inhibitory potency (key differentiating attributes, Table 5); format: biochemical
# Excerpt: as §1
compound,measurement,setting,value
COc1ccc2c3c1OC1C(OC(=O)N4CCC(C(=O)NCCCCC(NC(C)=O)C(=O)NCCOc5ccc(C(=O)Oc6ccc7cc(C(=N)N)ccc7c6)cc5)CC4CNC(=O)C(CCCNC(=N)N)NC(=O)CNC(C)=O)=CCC4C(C2)N(C)CCC314 [II-D-11],Percent BANA remaining,"trypsin [1]; 1 uM compound, 2 minutes",100%
same,Percent BANA remaining,"trypsin [1]; 1 uM compound, 13 minutes",39%
same,Percent BANA remaining,"trypsin [1]; 1 uM compound, 24 minutes",0%
same,Percent BANA remaining,"trypsin [1]; 1 uM compound, 80 minutes",0%
same,Percent BANA remaining,"trypsin [1]; 1 uM compound, 102 minutes",0%
same,Percent BANA remaining,"trypsin [1]; 1 uM compound, 119 minutes",0%
same,Percent BANA remaining,"trypsin [1]; 1 uM compound, 234 minutes",0%
same,Percent BANA remaining,"trypsin [1]; 10 uM compound, 2 minutes",100%
same,Percent BANA remaining,"trypsin [1]; 10 uM compound, 13 minutes",98%
same,Percent BANA remaining,"trypsin [1]; 10 uM compound, 24 minutes",96%
same,Percent BANA remaining,"trypsin [1]; 10 uM compound, 80 minutes",94%
same,Percent BANA remaining,"trypsin [1]; 10 uM compound, 102 minutes",93%
same,Percent BANA remaining,"trypsin [1]; 10 uM compound, 119 minutes",94%
same,Percent BANA remaining,"trypsin [1]; 10 uM compound, 234 minutes",87%
same,Percent BANA remaining,"trypsin [1]; 100 uM compound, 2 minutes",100%
same,Percent BANA remaining,"trypsin [1]; 100 uM compound, 13 minutes",98%
same,Percent BANA remaining,"trypsin [1]; 100 uM compound, 24 minutes",100%
same,Percent BANA remaining,"trypsin [1]; 100 uM compound, 80 minutes",99%
same,Percent BANA remaining,"trypsin [1]; 100 uM compound, 102 minutes",99%
same,Percent BANA remaining,"trypsin [1]; 100 uM compound, 119 minutes",99%
same,Percent BANA remaining,"trypsin [1]; 100 uM compound, 234 minutes",99%
same,Percent BANA remaining,"trypsin [1]; 1 mM compound, 2 minutes",100%
same,Percent BANA remaining,"trypsin [1]; 1 mM compound, 13 minutes",100%
same,Percent BANA remaining,"trypsin [1]; 1 mM compound, 24 minutes",99%
same,Percent BANA remaining,"trypsin [1]; 1 mM compound, 80 minutes",100%
same,Percent BANA remaining,"trypsin [1]; 1 mM compound, 102 minutes",100%
same,Percent BANA remaining,"trypsin [1]; 1 mM compound, 119 minutes",100%
same,Percent BANA remaining,"trypsin [1]; 1 mM compound, 234 minutes",100%
same,Ability to inhibit trypsin (result in words),trypsin [1],progressively inhibit trypsin in a concentration dependent manner
COc1ccc2c3c1OC1C(OC(=O)N4CCC(C(=O)NCCCCC(NC(=O)OCc5ccccc5)C(=O)NCCOc5ccc(C(=O)Oc6ccc7cc(C(=N)N)ccc7c6)cc5)CC4CNC(=O)C(CCCNC(=N)N)NC(=O)CNC(C)=O)=CCC4C(C2)N(C)CCC314 [II-D-23],Percent BANA remaining,"trypsin [1]; 1 uM compound, 2 minutes",100%
same,Percent BANA remaining,"trypsin [1]; 1 uM compound, 14 minutes",20%
same,Percent BANA remaining,"trypsin [1]; 1 uM compound, 24 minutes",11%
same,Percent BANA remaining,"trypsin [1]; 1 uM compound, 32 minutes",0%
same,Percent BANA remaining,"trypsin [1]; 1 uM compound, 70 minutes",0%
same,Percent BANA remaining,"trypsin [1]; 1 uM compound, 100 minutes",0%
same,Percent BANA remaining,"trypsin [1]; 1 uM compound, 145 minutes",0%
same,Percent BANA remaining,"trypsin [1]; 1 uM compound, 156 minutes",0%
same,Percent BANA remaining,"trypsin [1]; 1 uM compound, 247 minutes",0%
same,Percent BANA remaining,"trypsin [1]; 10 uM compound, 2 minutes",100%
same,Percent BANA remaining,"trypsin [1]; 10 uM compound, 14 minutes",98%
same,Percent BANA remaining,"trypsin [1]; 10 uM compound, 24 minutes",96%
same,Percent BANA remaining,"trypsin [1]; 10 uM compound, 32 minutes",98%
same,Percent BANA remaining,"trypsin [1]; 10 uM compound, 70 minutes",97%
same,Percent BANA remaining,"trypsin [1]; 10 uM compound, 100 minutes",95%
same,Percent BANA remaining,"trypsin [1]; 10 uM compound, 145 minutes",96%
same,Percent BANA remaining,"trypsin [1]; 10 uM compound, 156 minutes",96%
same,Percent BANA remaining,"trypsin [1]; 10 uM compound, 247 minutes",93%
same,Percent BANA remaining,"trypsin [1]; 100 uM compound, 2 minutes",100%
same,Percent BANA remaining,"trypsin [1]; 100 uM compound, 14 minutes",99%
same,Percent BANA remaining,"trypsin [1]; 100 uM compound, 24 minutes",100%
same,Percent BANA remaining,"trypsin [1]; 100 uM compound, 32 minutes",100%
same,Percent BANA remaining,"trypsin [1]; 100 uM compound, 70 minutes",100%
same,Percent BANA remaining,"trypsin [1]; 100 uM compound, 100 minutes",100%
same,Percent BANA remaining,"trypsin [1]; 100 uM compound, 145 minutes",100%
same,Percent BANA remaining,"trypsin [1]; 100 uM compound, 156 minutes",100%
same,Percent BANA remaining,"trypsin [1]; 100 uM compound, 247 minutes",100%
same,Percent BANA remaining,"trypsin [1]; 1 mM compound, 2 minutes",100%
same,Percent BANA remaining,"trypsin [1]; 1 mM compound, 14 minutes",99%
same,Percent BANA remaining,"trypsin [1]; 1 mM compound, 24 minutes",98%
same,Percent BANA remaining,"trypsin [1]; 1 mM compound, 32 minutes",99%
same,Percent BANA remaining,"trypsin [1]; 1 mM compound, 70 minutes",99%
same,Percent BANA remaining,"trypsin [1]; 1 mM compound, 100 minutes",98%
same,Percent BANA remaining,"trypsin [1]; 1 mM compound, 145 minutes",98%
same,Percent BANA remaining,"trypsin [1]; 1 mM compound, 156 minutes",97%
same,Percent BANA remaining,"trypsin [1]; 1 mM compound, 247 minutes",96%
same,Ability to inhibit trypsin (result in words),trypsin [1],progressively inhibit trypsin in a concentration dependent manner
COc1ccc2c3c1O[C@H]1C(OC(=O)N4CCC(C(=O)NCCCC[C@H](NC(=O)CCCN(C)C(=O)Oc5ccc6c7c5O[C@H]5C(=O)CC[C@@]8(O)[C@@H](C6)N(CC6CC6)CC[C@]758)C(=O)NCCNC(=O)Cc5ccc(OC(=O)c6ccc(NC(=N)N)cc6)cc5)CC4CNC(=O)[C@@H](CCCNC(=N)N)NC(=O)CNC(C)=O)=CC[C@H]4[C@@H](C2)N(C)CC[C@]314.O=C(O)C(F)(F)F.O=C(O)C(F)(F)F.O=C(O)C(F)(F)F.O=C(O)C(F)(F)F (stereo partly drawn) [II-D-71c-NTX],Release of hydrocodone and naltrexone on tampering (result in words),"[2]; 0.5M aqueous sodium hydroxide, 60° C., 300 minutes, LC/MS",release of the opioid agonist (e.g. hydrocodone) occurs concomitantly with the release of the opioid antagonist
same,Percent HC Released,[2]; time 0 (minutes),0%
same,Percent NTX Released,[2]; time 0 (minutes),0%
same,Percent HC Released,[2]; time 5 (minutes),2.52%
same,Percent NTX Released,[2]; time 5 (minutes),1.44%
same,Percent HC Released,[2]; time 10 (minutes),4.45%
same,Percent NTX Released,[2]; time 10 (minutes),2.0%
same,Percent HC Released,[2]; time 15 (minutes),6.27%
same,Percent NTX Released,[2]; time 15 (minutes),2.95%
same,Percent HC Released,[2]; time 20 (minutes),9.27%
same,Percent NTX Released,[2]; time 20 (minutes),3.69%
same,Percent HC Released,[2]; time 30 (minutes),13.99%
same,Percent NTX Released,[2]; time 30 (minutes),6.47%
same,Percent HC Released,[2]; time 60 (minutes),25.32%
same,Percent NTX Released,[2]; time 60 (minutes),14.41%
same,Percent HC Released,[2]; time 120 (minutes),37.9%
same,Percent NTX Released,[2]; time 120 (minutes),37.81%
same,Percent HC Released,[2]; time 300 (minutes),56.1%
same,Percent NTX Released,[2]; time 300 (minutes),60.25%
COc1ccc2c3c1OC1C(OC(=O)N(C)C(CNC(=O)[C@H](CCCNC(=N)N)NC(=O)CNC(C)=O)C(=O)NCCCC[C@H](NC(=O)OCc4ccccc4)C(=O)NCCOc4ccc(C(=O)Oc5cccc(NC(=N)N)c5)cc4)=CC[C@H]4[C@@H](C2)N(C)CC[C@]314 (stereo partly shown) [II-J-71b],Rate of Release of Opioid Against,[3],Slow
same,half-life,[3],~3 h
same,Trypsin Inhibitory Potency,trypsin [4],Low
COc1ccc2c3c1OC1C(OC(=O)N(C)C(CNC(=O)[C@H](CCCNC(=N)N)NC(=O)CNC(C)=O)C(=O)NCCCC[C@H](NC(=O)OCc4ccccc4)C(=O)NCCOc4ccc(C(=O)Oc5ccc(NC(=N)N)cc5)cc4)=CC[C@H]4[C@@H](C2)N(C)CC[C@]314 (stereo partly shown) [II-J-71c],Rate of Release of Opioid Against,[3],Slow
same,half-life,[3],~3 h
same,Trypsin Inhibitory Potency,trypsin [4],High
